The source of these data is patent US20240124460A1, “METHODS AND COMPOSITIONS FOR TARGETED PROTEIN DEGRADATION” (Ranok Therapeutics (Hangzhou) Co. Ltd., priority 2020, published 2024).

In assay [1] the test system is U-87 MG human glioblastoma. Briefly: U87 MG CCK-8 proliferation assay. In kind it is cell-based. The note with it: Homo sapiens, U-87 MG, 72 h, U-87 MG cells, read-out: U87MG CCK-8. As to the method: (§1) The following cancer cell lines were employed: A549 human lung carcinoma (ATCC, #CCL-185); BT-474 human breast carcinoma (ATCC, #HTB-20); MDA-MB-231 human breast adenocarcinoma (ATCC, #CRM−HTB-26); MDA-MB-468 human breast adenocarcinoma (ATCC, #HTB-132); MV-4-11 human acute myeloid leukemia (ATCC, #CRL-9591); and U-87 MG human glioblastoma (ATCC, #HTB-14). Cell lines were cultured essentially according to ATCC recommendations.
(§2) 3-fold serial dilutions of each test compound were prepared ranging from 20 μM to 1.02 nM.
(§3) % Inhibition=100−(D−B)/(S−B)*100%. • S: Absorbance of cells treated with DMSO • D: Absorbance of compound-treated cells • B: Absorbance of medium with DMSO without cells
(In general: Formazan colour is commonly taken as a measure of viable cells.)

Assay [2] concerns MV-4-11 human acute myeloid leukemia. As to the kind of experiment: MV-4-11 CCK-8 proliferation assay. In kind it is cell-based. As to conditions: Homo sapiens, MV4-11; MV-4-11 cells, 72 hr. As to the method:
as §1, §2, §3

In the case of `CCOc1cc(CN2CCC(CN3CCN(Cc4ccc(-n5c(C(=O)NCC(F)(F)F)nnc5-c5cc(C(C)C)c(O)cc5O)cc4)CC3)CC2)ccc1Nc1ncc2c(n1)N(S(C)(=O)=O)c1ccccc1C(=O)N2C` [Compound 191, 5-(2,4-dihydroxy-5-isopropylphenyl)-4-(4-((4-((1-(3-ethoxy-4-((5-methyl-11-(methylsulfonyl)-6-oxo-6,11-dihydro-5H-benzo[e]pyrimido[5,4-b][1,4]diazepin-2-yl)amino)benzyl)piperidin-4-yl)methyl)piperazin-1-yl)methyl)phenyl)-N-(2,2,2-trifluoroethyl)-4H-1,2,4-triazole-3-carboxamide], the EC50 in assay [1] and in assay [2] was < 100 nM throughout.

Regarding `CCOc1cc(N2CCC(CN3CCC(CN4CCN(Cc5ccc(-n6c(C(=O)NC(C)C(F)(F)F)nnc6-c6cc(CC)c(O)cc6O)cc5)CC4)CC3)CC2)ccc1Nc1ncc2c(n1)N(S(C)(=O)=O)c1ccccc1C(=O)N2C` (stereo not shown) [Compound 179, 4-(4-((4-((1-((1-(3-ethoxy-4-((5-methyl-11-(methylsulfonyl)-6-oxo-6,11-dihydro-5H-benzo[e]pyrimido[5,4-b][1,4]diazepin-2-yl)amino)phenyl)piperidin-4-yl)methyl)piperidin-4-yl)methyl)piperazin-1-yl)methyl)phenyl)-5-(5-ethyl-2,4-dihydroxyphenyl)-N-(1,1,1-trifluoropropan-2-yl)-4H-1,2,4-triazole-3-carboxamide 2,2,2-trifluoroacetate], the EC50 in assay [1] and in assay [2] was < 100 nM in each case.

For `CCNC(=O)c1nnc(-c2cc(C(C)C)c(O)cc2O)n1-c1ccc(CN2CCN(c3ccc(Nc4ncc5c(n4)N(C4CCCC4)c4ccccc4C(=O)N5C)c(OCC)c3)CC2)cc1` [Compound 190, 4-(4-((4-(4-((11-cyclopentyl-5-methyl-6-oxo-6,11-dihydro-5H-benzo[e]pyrimido[5,4-b][1,4]diazepin-2-yl)amino)-3-ethoxyphenyl)piperazin-1-yl)methyl)phenyl)-5-(2,4-dihydroxy-5-isopropylphenyl)-N-ethyl-4H-1,2,4-triazole-3-carboxamide], the EC50 in assay [1] and in assay [2] was 100 to 1000 nM throughout.

Consider `CCOc1cc(N2CCC(C(=O)N3CCC(COc4ccc(-c5ccc(NC(=O)c6ccc(OC)c(-c7cccc(OC)c7)c6)cc5)cc4)CC3)CC2)ccc1Nc1ncc2c(n1)N(C)c1ccccc1C(=O)N2C` [Compound 145, N-(4′-((1-(1-(4-((5,11-dimethyl-6-oxo-6,11-dihydro-5H-benzo[e]pyrimido[5,4-b][1,4]diazepin-2-yl)amino)-3-ethoxyphenyl)piperidine-4-carbonyl)piperidin-4-yl)methoxy)-[1,1′-biphenyl]-4-yl)-3′,6-dimethoxy-[1,1′-biphenyl]-3-carboxamide], for which the EC50 in assay [1] and in assay [2] was > 1000 nM each time.

For `CCOc1cc(N2CCC(CN3CCC4(CC3)CN(Cc3ccc(-n5c(O)nnc5-c5cc(C(C)C)c(O)cc5O)cc3)C4)CC2)ccc1Nc1ncc2c(n1)N(S(C)(=O)=O)c1ccccc1C(=O)N2C` [Compound 184, 2-((4-(4-((2-(4-(3-(2,4-dihydroxy-5-isopropylphenyl)-5-hydroxy-4H-1,2,4-triazol-4-yl)benzyl)-2,7-diazaspiro[3.5]nonan-7-yl)methyl)piperidin-1-yl)-2-ethoxyphenyl)amino)-5-methyl-11-(methylsulfonyl)-5,11-dihydro-6H-benzo[e]pyrimido[5,4-b][1,4]diazepin-6-one], the values for the EC50 in assay [1] and in assay [2] were 100 to 1000 nM and < 100 nM, respectively.

Take `CCOc1cc(N2CCC(C(=O)NCCOCCOCCOc3ccc(Nc4cc(-n5nc(C(F)(F)F)c6c5CC(C)(C)CC6=O)ccc4C(N)=O)cc3)CC2)ccc1Nc1ncc2c(n1)N(C)c1ccccc1C(=O)N2C` [Compound 131, N-(2-(2-(2-(4-((2-carbamoyl-5-(6,6-dimethyl-4-oxo-3-(trifluoromethyl)-4,5,6,7-tetrahydro-1H-indazol-1-yl)phenyl)amino)phenoxy)ethoxy)ethoxy)ethyl)-1-(4-((5,11-dimethyl-6-oxo-6,11-dihydro-5H-benzo[e]pyrimido[5,4-b][1,4]diazepin-2-yl)amino)-3-ethoxyphenyl)piperidine-4-carboxamide]: the EC50 in assay [1] was > 1000 nM; in assay [2], 100 to 1000 nM.

`CCOc1cc(N2CCC(C(=O)N3CCC(Oc4ccc(-c5ccc(NC(=O)c6ccc(OC)c(-c7cccc(OC)c7)c6)cc5)cc4)CC3)CC2)ccc1Nc1ncc2c(n1)N(C)c1ccccc1C(=O)N2C` [Compound 143, N-(4′-((1-(1-(4-((5,11-dimethyl-6-oxo-6,11-dihydro-5H-benzo[e]pyrimido[5,4-b][1,4]diazepin-2-yl)amino)-3-ethoxyphenyl)piperidine-4-carbonyl)piperidin-4-yl)oxy)-[1,1′-biphenyl]-4-yl)-3′,6-dimethoxy-[1,1′-biphenyl]-3-carboxamide]: the EC50 in assay [1] and in assay [2] was > 1000 nM throughout.

For `CCCc1cc(-c2nnc(O)n2-c2ccc(CN3CCN(C(=O)C4CCN(c5ccc(Nc6ncc7c(n6)N(C)c6ccccc6C(=O)N7C)c(OCC)c5)CC4)CC3)cc2)c(O)cc1O` [Compound 050, 2-((4-(4-(4-(4-(3-(2,4-dihydroxy-5-propylphenyl)-5-hydroxy-4H-1,2,4-triazol-4-yl)benzyl)piperazine-1-carbonyl)piperidin-1-yl)-2-ethoxyphenyl)amino)-5,11-dimethyl-5,11-dihydro-6H-benzo[e]pyrimido[5,4-b][1,4]diazepin-6-one], the EC50 in assay [1] was 100 to 1000 nM; in assay [2], < 100 nM.

Take `CCOc1cc(N2CCC(CN3CCN(Cc4ccc(-n5c(O)nnc5-c5cc(C(C)C)c(O)cc5O)cc4)CC3)CC2)ccc1Nc1ncc2c(n1)N(S(C)(=O)=O)c1ccccc1C(=O)N2C` [Compound 187, 2-((4-(4-((4-(4-(3-(2,4-dihydroxy-5-isopropylphenyl)-5-hydroxy-4H-1,2,4-triazol-4-yl)benzyl)piperazin-1-yl)methyl)piperidin-1-yl)-2-ethoxyphenyl)amino)-5-methyl-11-(methylsulfonyl)-5,11-dihydro-6H-benzo[e]pyrimido[5,4-b][1,4]diazepin-6-one]: the EC50 in assay [1] and in assay [2] was < 100 nM each time.

Turning to `CCOc1cc(N2CCC(CN3CCN(Cc4ccc(-n5c(C(=O)NCC(F)(F)F)nnc5-c5cc(C(C)C)c(O)cc5O)cc4)CC3)CC2)ccc1Nc1ncc2c(n1)N(S(C)(=O)=O)c1ccccc1C(=O)N2C` [Compound 178, 5-(2,4-dihydroxy-5-isopropylphenyl)-4-(4-((4-((1-(3-ethoxy-4-((5-methyl-11-(methylsulfonyl)-6-oxo-6,11-dihydro-5H-benzo[e]pyrimido[5,4-b][1,4]diazepin-2-yl)amino)phenyl)piperidin-4-yl)methyl)piperazin-1-yl)methyl)phenyl)-N-(2,2,2-trifluoroethyl)-4H-1,2,4-triazole-3-carboxamide], the EC50 in assay [1] and in assay [2] was < 100 nM in each case.

Consider `CCOc1cc(N2CCC(C(=O)N3CCN(Cc4ccc(-n5c(C(=O)NCCN6CCN(C)CC6)nnc5-c5cc(C(C)C)c(O)cc5O)cc4)CC3)CC2)ccc1Nc1ncc2c(n1)N(C)c1ccccc1C(=O)N2C` [Compound 167, 5-(2,4-dihydroxy-5-isopropylphenyl)-4-(4-((4-(1-(4-((5,11-dimethyl-6-oxo-6,11-dihydro-5H-benzo[e]pyrimido[5,4-b][1,4]diazepin-2-yl)amino)-3-ethoxyphenyl)piperidine-4-carbonyl)piperazin-1-yl)methyl)phenyl)-N-(2-(4-methylpiperazin-1-yl)ethyl)-4H-1,2,4-triazole-3-carboxamide], for which the EC50 in assay [1] and in assay [2] was < 100 nM each time.

For `CCOc1cc(N2CCC(C(=O)N3CCN(Cc4ccc(-n5c(O)nnc5-c5cc(C(C)C)c(O)cc5O)cc4)CC3)CC2)ccc1Nc1ncc2c(n1)N(S(C)(=O)=O)c1ccccc1C(=O)N2C` [Compound 159, 2-((4-(4-(4-(4-(3-(2,4-dihydroxy-5-isopropylphenyl)-5-hydroxy-4H-1,2,4-triazol-4-yl)benzyl)piperazine-1-carbonyl)piperidin-1-yl)-2-ethoxyphenyl)amino)-5-methyl-11-(methylsulfonyl)-5,11-dihydro-6H-benzo[e]pyrimido[5,4-b][1,4]diazepin-6-one], the EC50 in assay [1] and in assay [2] was < 100 nM each time.

Take `CCOc1cc(N2CCC(C(=O)N3CCC(COc4ccc(-c5ccc(NC(=O)c6ccc(OC)c(-c7cccc(OC)c7)c6)cc5)cc4)CC3)CC2)ccc1Nc1ncc2c(n1)N(S(C)(=O)=O)c1ccccc1C(=O)N2C` [Compound 146, N-(4′-((1-(1-(3-ethoxy-4-((5-methyl-11-(methylsulfonyl)-6-oxo-6,11-dihydro-5H-benzo[e]pyrimido[5,4-b][1,4]diazepin-2-yl)amino)phenyl)piperidine-4-carbonyl)piperidin-4-yl)methoxy)-[1,1′-biphenyl]-4-yl)-3′,6-dimethoxy-[1,1′-biphenyl]-3-carboxamide]: the EC50 in assay [1] and in assay [2] was > 1000 nM each time.

In the case of `CCOc1cc(N2CCC(C(=O)NCCCOc3ccc(-c4ccc(NC(=O)c5ccc(OC)c(-c6cccc(OC)c6)c5)cc4)cc3)CC2)ccc1Nc1ncc2c(n1)N(C)c1ccccc1C(=O)N2C` [Compound 147, N-(3-((4′-(3′,6-dimethoxy-[1,1′-biphenyl]-3-carboxamido)-[1,1′-biphenyl]-4-yl)oxy)propyl)-1-(4-((5,11-dimethyl-6-oxo-6,11-dihydro-5H-benzo[e]pyrimido[5,4-b][1,4]diazepin-2-yl)amino)-3-ethoxyphenyl)piperidine-4-carboxamide], the EC50 in assay [1] and in assay [2] was > 1000 nM throughout.
